{
  "source": "patent US20140121103A1",
  "about": "“COMPOSITIONS COMPRISING FUNGICIDAL SUBSTITUTED DITHIINES AND FURTHER ACTIVES” (BASF SE, priority 2011, published 2014)",
  "assay_type_in_all_cases": "cell-based",
  "key": {"Leptosphaeria nodorum": {"tested_on": "Leptosphaeria nodorum", "experiment": "Activity against wheat leaf spots caused by Leptosphaeria nodorum (microtiter plate)"}, "Pyricularia oryzae": {"tested_on": "Pyricularia oryzae", "conditions": "active alone"}, "Septoria tritici": {"tested_on": "Septoria tritici", "experiment": "Activity against leaf blotch on wheat caused by Septoria tritici (microtiter plate)", "conditions": "active alone"}, "Alternaria solani": {"tested_on": "Alternaria solani", "experiment": "Activity against early blight caused by Alternaria solani (microtiter plate)", "conditions": "active alone"}, "Botrytis cinerea": {"tested_on": "Botrytis cinerea", "experiment": "Activity against the grey mold Botrytis cinerea in the microtiterplate test", "conditions": "active alone"}, "[1]": {"conditions": "Parastagonospora nodorum, 168 h, active alone, read-out: Observed efficacy"}},
  "note": "Where two headings read alike, the source gives them in different places.",
  "data": [
    {"compound": "O=C(Nc1ccccc1-c1ccc(Cl)cc1)c1cccnc1Cl", "note": "[Boscalid]", "values": [
      {"measurement": "inhibition of growth at 16 ppm", "setting": "Leptosphaeria nodorum; [1]", "result": 25, "unit": "%"},
      {"measurement": "Observed efficacy", "setting": "Pyricularia oryzae; 16 ppm", "result": 6, "unit": "%"}
    ]},
    {"compound": "CO/C=C(/C(=O)OC)c1ccccc1Oc1cc(Oc2ccccc2C#N)ncn1", "note": "[Azoxystrobin]", "values": [
      {"measurement": "Observed efficacy", "setting": "Septoria tritici; 0.25 ppm", "result": 65, "unit": "%"}
    ]},
    {"compound": "CCCCCCCCc1c(CC)nc2ncnn2c1N", "note": "[Ametoctradin]", "values": [
      {"measurement": "Observed efficacy", "setting": "Alternaria solani; 4 ppm", "result": 4, "unit": "%"},
      {"measurement": "Observed efficacy", "setting": "Leptosphaeria nodorum; active alone, 4 ppm", "result": 31, "unit": "%"},
      {"measurement": "Observed efficacy", "setting": "Pyricularia oryzae; 4 ppm", "result": 12, "unit": "%"},
      {"measurement": "Observed efficacy", "setting": "Septoria tritici; 4 ppm", "result": 13, "unit": "%"}
    ]},
    {"compound": "OC(Cc1ccccc1Cl)(Cn1nc[nH]c1=S)C1(Cl)CC1", "note": "(centres unmarked) [Prothioconazol]", "values": [
      {"measurement": "inhibition of growth at 1 ppm", "setting": "Leptosphaeria nodorum; [1]", "result": 52, "unit": "%"}
    ]},
    {"compound": "CC(C)[C@H](NC(=O)O)C(=O)N[C@H](C)c1nc2ccc(F)cc2s1", "note": "[Benthiavalicarb]", "values": [
      {"measurement": "Observed efficacy", "setting": "Leptosphaeria nodorum; active alone, 4 ppm", "result": 27, "unit": "%"},
      {"measurement": "Observed efficacy", "setting": "Pyricularia oryzae; 4 ppm", "result": 3, "unit": "%"},
      {"measurement": "Observed efficacy", "setting": "Septoria tritici; 4 ppm", "result": 10, "unit": "%"}
    ]},
    {"compound": "CC(C)(C)C(O)(CCc1ccc(Cl)cc1)Cn1cncn1", "note": "(centres unmarked) [Tebuconazol]", "values": [
      {"measurement": "Observed efficacy", "setting": "Septoria tritici; 0.25 ppm", "result": 54, "unit": "%"}
    ]},
    {"compound": "COC(=O)Nc1nc2ccccc2[nH]1", "note": "[Carbendazim]", "values": [
      {"measurement": "Observed efficacy", "setting": "Alternaria solani; 4 ppm", "result": 35, "unit": "%"},
      {"measurement": "Observed efficacy", "setting": "Botrytis cinerea; 0.063 ppm", "result": 75, "unit": "%"},
      {"measurement": "Observed efficacy", "setting": "Septoria tritici; 0.016 ppm", "result": 0, "unit": "%"}
    ]},
    {"compound": "N#Cc1c(Cl)c(Cl)c(Cl)c(C#N)c1Cl", "note": "[Chlorothalonil]", "values": [
      {"measurement": "Observed efficacy", "setting": "Alternaria solani; 1 ppm", "result": 17, "unit": "%"},
      {"measurement": "Observed efficacy", "setting": "Botrytis cinerea; 4 ppm", "result": 58, "unit": "%"},
      {"measurement": "inhibition of growth at 1 ppm", "setting": "Leptosphaeria nodorum; [1]", "result": 22, "unit": "%"}
    ]},
    {"compound": "CC1COC(Cn2cncn2)(c2ccc(Oc3ccc(Cl)cc3)cc2Cl)O1", "note": "(centres unmarked) [Difenoconazol]", "values": [
      {"measurement": "Observed efficacy", "setting": "Pyricularia oryzae; 1 ppm", "result": 27, "unit": "%"}
    ]},
    {"compound": "Cc1cc(C)nc(Nc2ccccc2)n1", "note": "[Pyrimethanil]", "values": [
      {"measurement": "Observed efficacy", "setting": "Pyricularia oryzae; 16 ppm", "result": 72, "unit": "%"}
    ]},
    {"compound": "Cc1ccc(C(C)NC(=O)[C@@H](NC(=O)OC(C)C)C(C)C)cc1", "note": "(some centres unmarked) [Iprovalicarb]", "values": [
      {"measurement": "Observed efficacy", "setting": "Pyricularia oryzae; 4 ppm", "result": 6, "unit": "%"},
      {"measurement": "Observed efficacy", "setting": "Septoria tritici; 4 ppm", "result": 13, "unit": "%"}
    ]},
    {"compound": "COCC(=O)N(c1c(C)cccc1C)[C@H](C)C(=O)OC", "note": "[Metalaxyl-M]", "values": [
      {"measurement": "Observed efficacy", "setting": "Leptosphaeria nodorum; active alone, 4 ppm", "result": 26, "unit": "%"},
      {"measurement": "Observed efficacy", "setting": "Pyricularia oryzae; 4 ppm", "result": 8, "unit": "%"},
      {"measurement": "Observed efficacy", "setting": "Septoria tritici; 4 ppm", "result": 11, "unit": "%"}
    ]},
    {"compound": "Cn1cc(C(=O)Nc2ccccc2-c2cc(F)c(F)c(F)c2)c(C(F)F)n1", "note": "[Fluxapyroxad]", "values": [
      {"measurement": "Observed efficacy", "setting": "Leptosphaeria nodorum; active alone, 0.063 ppm", "result": 23, "unit": "%"},
      {"measurement": "Observed efficacy", "setting": "Pyricularia oryzae; 0.063 ppm", "result": 7, "unit": "%"}
    ]},
    {"compound": "Cc1ccc(-c2c(Cl)nc(C#N)n2S(=O)(=O)N(C)C)cc1", "note": "[Cyazofamid]", "values": [
      {"measurement": "inhibition of growth at 1 ppm", "setting": "Leptosphaeria nodorum; [1]", "result": 25, "unit": "%"},
      {"measurement": "Observed efficacy", "setting": "Pyricularia oryzae; 1 ppm", "result": 8, "unit": "%"},
      {"measurement": "Observed efficacy", "setting": "Septoria tritici; 1 ppm", "result": 2, "unit": "%"}
    ]},
    {"compound": "CCCN(CCOc1c(Cl)cc(Cl)cc1Cl)C(=O)n1ccnc1", "note": "[Prochloraz]", "values": [
      {"measurement": "Observed efficacy", "setting": "Septoria tritici; 0.063 ppm", "result": 20, "unit": "%"}
    ]},
    {"compound": "N#CC1=C(C#N)SC(C#N)=C(C#N)S1", "note": "[Compound I.A, 2,3,5,6-tetracyano-[1,4]dithiine]", "values": [
      {"measurement": "Observed efficacy", "setting": "Alternaria solani; 1 ppm", "result": 11, "unit": "%"},
      {"measurement": "Observed efficacy", "setting": "Alternaria solani; 4 ppm", "result": 46, "unit": "%"},
      {"measurement": "Observed efficacy", "setting": "Botrytis cinerea; 0.063 ppm", "result": 1, "unit": "%"},
      {"measurement": "Observed efficacy", "setting": "Botrytis cinerea; 4 ppm", "result": 14, "unit": "%"},
      {"measurement": "inhibition of growth at 4 ppm", "setting": "Leptosphaeria nodorum; Parastagonospora nodorum, 168 h, read-out: Observed efficacy", "result": 53, "unit": "%"},
      {"measurement": "inhibition of growth at 1 ppm", "setting": "Leptosphaeria nodorum; [1]", "result": 7, "unit": "%"},
      {"measurement": "Observed efficacy", "setting": "Pyricularia oryzae; 4 ppm", "result": 20, "unit": "%"},
      {"measurement": "Observed efficacy", "setting": "Septoria tritici; 0.016 ppm", "result": 8, "unit": "%"},
      {"measurement": "Observed efficacy", "setting": "Septoria tritici; 1 ppm", "result": 18, "unit": "%"},
      {"measurement": "Observed efficacy", "setting": "Septoria tritici; 4 ppm", "result": 74, "unit": "%"}
    ]},
    {"compound": "CC(C)NC(=O)N1CC(=O)N(c2cc(Cl)cc(Cl)c2)C1=O", "note": "[Iprodion]", "values": [
      {"measurement": "inhibition of growth at 4 ppm", "setting": "Leptosphaeria nodorum; Parastagonospora nodorum, 168 h, active alone, 4 ppm, read-out: Observed efficacy", "result": 54, "unit": "%"},
      {"measurement": "Observed efficacy", "setting": "Pyricularia oryzae; 4 ppm", "result": 29, "unit": "%"},
      {"measurement": "Observed efficacy", "setting": "Septoria tritici; 4 ppm", "result": 0, "unit": "%"}
    ]},
    {"compound": "COC(=O)N(OC)c1ccccc1COc1ccn(-c2ccc(Cl)cc2)n1", "note": "[Pyraclostrobin]", "values": [
      {"measurement": "inhibition of growth at 0.25 ppm", "setting": "Leptosphaeria nodorum; Parastagonospora nodorum, 168 h, active alone, 0.25 ppm, read-out: Observed efficacy", "result": 57, "unit": "%"}
    ]},
    {"compound": "CC1(C(=O)Nc2ccc(O)c(Cl)c2Cl)CCCCC1", "note": "[Fenhexamid]", "values": [
      {"measurement": "inhibition of growth at 16 ppm", "setting": "Leptosphaeria nodorum; [1]", "result": 37, "unit": "%"},
      {"measurement": "Observed efficacy", "setting": "Septoria tritici; 16 ppm", "result": 28, "unit": "%"}
    ]}
  ]
}
